According to patent US4894376A, “Methods of treating diseases characterized by hyperexcitability of neurons” (Trustees of the University of Pennsylvania, priority 1988, dated 1990):

What was measured:
[1] = test system: L and T type calcium channels; details: cited from earlier work
T type calcium channel [2] = experiment: Patch clamp (voltage clamp) of T type calcium channel current in neuroblastoma cells; format: cell-based, mouse; details: for T type calcium channel current: 1 uM, neuroblastoma cells, FIG. 3
L type calcium channel = experiment: Patch clamp (voltage clamp) of L type calcium channel current in neuroblastoma cells; format: cell-based, mouse
neuroblastoma cell = experiment: Current clamp measurement of membrane potential of a neuroblastoma cell; format: cell-based, mouse
frog atrial cells = details: cited from earlier work
T type calcium channel [3] = experiment: Patch clamp (voltage clamp) of T type calcium channel current in chick dorsal root ganglion neurons; format: cell-based, chick (gallus domesticus); details: DRG neurons; FIG. 2B
right atrium = details: spontaneously beating right atrium; cited from earlier work
SA node = details: cited from earlier work

COC(=O)C1=C(C)NC(C)=C(C(=O)OC)C1c1ccccc1[N+](=O)[O-] [Nifidepine, nifidepine]
calcium channel type blocked [1]: blocks only the L type calcium channel

N=C(NCc1ccccc1)NC(=O)c1nc(Cl)c(N)nc1N [benzamil]
T type calcium channel current (T type calcium channel [2]): reversably suppresses the bulk of the T type calcium channel current | increase of T channel activity by addition of a benzyl moiety to the guanidine portion of amiloride (T type calcium channel [2]; relative to amiloride): about fifty | L type current (L type calcium channel; 1 uM, neuroblastoma cells, FIG. 3): without suppressing the L type current | regenerative depolarization (neuroblastoma cell; 5 uM, after 1 uM TTX, current pulses of 40 picoamps, FIG. 4): further decreased the regenerative depolarization

COc1ccc([C@@H]2Sc3ccccc3N(CCN(C)C)C(=O)[C@@H]2OC(C)=O)cc1 [diltiazem]
calcium channel type blocked [1]: block both the L and T type calcium channels

N=C(NCc1ccc(Cl)c(Cl)c1)NC(=O)c1nc(Cl)c(N)nc1N [3,4-dichlorobenzamil]
calcium currents (frog atrial cells): inhibited calcium currents in frog atrial cells

COc1ccc(CCN(C)CCCC(C#N)(c2ccc(OC)c(OC)c2)C(C)C)cc1OC (stereo not shown) [Verapamil, verapamil]
calcium channel type blocked [1]: block both the L and T type calcium channels

COc1ccc(CNC(=N)NC(=O)c2nc(Cl)c(N)nc2N)cc1OC [Dimethoxybenzamil, 3,4-dimethoxybenzamil]
T type calcium channel current (T type calcium channel [2]): similarly suppresses the T type current

N=C(N)NC(=O)c1nc(Cl)c(N)nc1N [amiloride]
T type calcium channel current (transient current) (T type calcium channel [2]; N1E-115 cells, held at -90 mV, depolarization to -20 mV, FIG. 1A, 1C): suppresses this T type channel current | L type calcium channel current (slow inactivating current) (L type calcium channel; N1E-115 cells, held at -90 mV, depolarization to +20 mV, FIG. 1A, 1D): does not appreciably suppress this L type channel current | T type calcium channel current (T type calcium channel [3]): completely suppressed the T type calcium channel current | neuronal excitability near threshold (neuroblastoma cell; 250 uM, current pulse to threshold and slightly above threshold, FIG. 5): suppress neuronal excitability at membrane potential near the threshold for regenerative depolarization | depolarization well above threshold (neuroblastoma cell; 250 uM, higher degree of stimulation, FIG. 5): does not block the depolarization at higher degree of stimulation | frequency of contractions (right atrium): decreased the frequency of contractions of the spontaneously beating right atrium | chronotropic action (SA node): negative chronotropic action on the SA node
